From patent US8952024B2, “Herbicidal pyrimidone derivatives” (E I du Pont de Nemours and Company, priority 2009, dated 2015)

Legend:
Type in all cases: in vivo
[1] = test system: kochia (Kochia scoparia); test: Test B pre-/postemergence plant response; conditions: Postemergence
Method in brief: (§1)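 Seeds were sown in loam soil/sand blend and treated preemergence with compound in non-phytotoxic solvent mixture containing surfactant; postemergence sprays, same formulation, went onto plants 2 to 18 cm (1- to 4-leaf stage) in peat-based planting medium. Greenhouse 13 to 15 days, then visual rating versus untreated controls, 0 (no effect) to 100 (complete control).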

[2] = test system: soybean (Glycine max); test: Test B pre-/postemergence plant response; conditions: Postemergence
Method in brief: as §1

[3] = test system: giant foxtail (Setaria faberii); test: Test B pre-/postemergence plant response; conditions: Postemergence
Method in brief: as §1

[4] = test system: wild oat (Avena fatua); test: Test B pre-/postemergence plant response; conditions: Postemergence
Method in brief: as §1

[5] = test system: johnsongrass (Sorghum halepense); test: Test B pre-/postemergence plant response; conditions: Postemergence
Method in brief: as §1

[6] = test system: cocklebur (Xanthium strumarium); test: Test B pre-/postemergence plant response; conditions: Postemergence
Method in brief: as §1

[7] = test system: morningglory (Ipomoea coccinea); test: Test B pre-/postemergence plant response; conditions: Postemergence
Method in brief: as §1

[8] = test system: blackgrass (Alopecurus myosuroides); test: Test B pre-/postemergence plant response; conditions: for Blackgrass plant response rating (0 to 100 scale): postemergence, 0 is no effect, 100 is complete control; for Plant response rating, Blackgrass: Postemergence
Method in brief: as §1

[9] = test system: corn (Zea mays); test: Test B pre-/postemergence plant response; conditions: Postemergence
Method in brief: as §1

[10] = test system: bermudagrass (Cynodon dactylon); test: Test B pre-/postemergence plant response; conditions: for Bermudagrass plant response rating (0 to 100 scale): postemergence, 0 is no effect, 100 is complete control; for Plant response rating, Bermudagrass: Postemergence
Method in brief: as §1

[11] = test system: windgrass (Apera spica-venti); test: Test B postemergence plant response; conditions: Postemergence
Method in brief: (§2)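 Visual ratings from 0 (no effect) to 100 (complete control), made against controls 13–15 days after treatment, kept in a greenhouse. Compounds were applied postemergence to potted plants at the 1- to 4-leaf stage (2–18 cm).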

[12] = test system: winter barley (Hordeum vulgare); test: Test B postemergence plant response; conditions: for Barley plant response rating (0 to 100 scale): postemergence, 0 is no effect, 100 is complete control; for Plant response rating, Barley: Postemergence
Method in brief: as §2

[13] = test system: chickweed (Stellaria media); test: Test B postemergence plant response; conditions: Postemergence
Method in brief: as §2

[14] = test system: canarygrass (Phalaris minor); test: Test B postemergence plant response; conditions: Postemergence
Method in brief: as §2

[15] = 31 g ai/ha, 0 to 100 scale (0 no effect, 100 complete control)
[16] = 125 g ai/ha, scale 0 to 100 (0 no effect, 100 complete control)
[17] = 250 g ai/ha, scale 0 to 100 (0 no effect, 100 complete control), 13 to 15 days
[18] = 62 g ai/ha, scale 0 to 100 (0 no effect, 100 complete control)

SMILES: O=C1CCCC(O)=C1C(=O)c1cnc(-c2cccs2)n(C2CCCCC2)c1=O [Compound 189]
- Plant response rating, Kochia [1, 15]: 85
- Plant response rating, Kochia [1, 16]: 98
- Plant response rating, Kochia [1, 17]: 100
- Plant response rating, Soybean [2, 15]: 90
- Plant response rating, Soybean [2, 16]: 98
- Plant response rating, Soybean [2, 17]: 100
- Plant response rating, Foxtail, Giant [3, 15]: 75
- Plant response rating, Foxtail, Giant [3, 16]: 90
- Plant response rating, Foxtail, Giant [3, 17]: 98
- Plant response rating, Oat, Wild [4, 15]: 5
- Plant response rating, Oat, Wild [4, 16]: 10
- Plant response rating, Oat, Wild [4, 17]: 25
- Plant response rating, Johnsongrass [5, 15]: 50
- Plant response rating, Johnsongrass [5, 16]: 65
- Plant response rating, Johnsongrass [5, 17]: 70
- Plant response rating, Cocklebur [6, 15]: 60
- Plant response rating, Cocklebur [6, 16]: 100
- Plant response rating, Cocklebur [6, 17]: 100
- Plant response rating, Morningglory [7, 15]: 100
- Plant response rating, Morningglory [7, 16]: 100
- Plant response rating, Morningglory [7, 17]: 100
- Blackgrass plant response rating (0 to 100 scale) ([8]; 62 g ai/ha, 13 to 15 days): 0
- Plant response rating, Blackgrass [8, 15]: 0
- Plant response rating, Blackgrass [8, 16]: 5
- Plant response rating, Blackgrass [8, 17]: 5
- Plant response rating, Corn [9, 15]: 20
- Plant response rating, Corn [9, 16]: 35
- Plant response rating, Corn [9, 17]: 45
- Bermudagrass plant response rating (0 to 100 scale) ([10]; 62 g ai/ha, 13 to 15 days): 15
- Plant response rating, Bermudagrass [10, 15]: 10
- Plant response rating, Bermudagrass [10, 16]: 65
- Plant response rating, Bermudagrass [10, 17]: 70
- Plant response rating, Windgrass [11, 15]: 25
- Plant response rating, Windgrass [11, 16]: 60
- Plant response rating, Windgrass [11, 17]: 80
- Barley plant response rating (0 to 100 scale) ([12]; 62 g ai/ha, 13 to 15 days): 5
- Plant response rating, Barley [12, 15]: 0
- Plant response rating, Barley [12, 16]: 15
- Plant response rating, Barley [12, 17]: 40
- Plant response rating, Chickweed [13, 15]: 98
- Plant response rating, Chickweed [13, 16]: 100
- Plant response rating, Chickweed [13, 17]: 100
- Plant response rating, Canarygrass [14, 15]: 0
- Plant response rating, Canarygrass [14, 16]: 5
- Plant response rating, Canarygrass [14, 17]: 10

SMILES: CCCn1c(-c2cccc(Cl)c2)ncc(C(=O)C2=C(O)CCCC2=O)c1=O [Compound 190]
- Plant response rating, Kochia [1, 15]: 0
- Plant response rating, Kochia [1, 16]: 98
- Plant response rating, Kochia [1, 17]: 98
- Plant response rating, Soybean [2, 15]: 80
- Plant response rating, Soybean [2, 16]: 95
- Plant response rating, Soybean [2, 17]: 98
- Plant response rating, Foxtail, Giant [3, 15]: 70
- Plant response rating, Foxtail, Giant [3, 16]: 90
- Plant response rating, Foxtail, Giant [3, 17]: 95
- Plant response rating, Oat, Wild [4, 15]: 0
- Plant response rating, Oat, Wild [4, 16]: 40
- Plant response rating, Oat, Wild [4, 17]: 50
- Plant response rating, Johnsongrass [5, 15]: 60
- Plant response rating, Johnsongrass [5, 16]: 75
- Plant response rating, Johnsongrass [5, 17]: 80
- Plant response rating, Cocklebur [6, 15]: 40
- Plant response rating, Cocklebur [6, 16]: 95
- Plant response rating, Cocklebur [6, 17]: 100
- Plant response rating, Morningglory [7, 15]: 40
- Plant response rating, Morningglory [7, 16]: 85
- Plant response rating, Morningglory [7, 17]: 100
- Blackgrass plant response rating (0 to 100 scale) ([8]; 62 g ai/ha, 13 to 15 days): 30
- Plant response rating, Blackgrass [8, 15]: 5
- Plant response rating, Blackgrass [8, 16]: 35
- Plant response rating, Blackgrass [8, 17]: 40
- Plant response rating, Corn [9, 15]: 0
- Plant response rating, Corn [9, 16]: 40
- Plant response rating, Corn [9, 17]: 65
- Bermudagrass plant response rating (0 to 100 scale) ([10]; 62 g ai/ha, 13 to 15 days): 100
- Plant response rating, Bermudagrass [10, 15]: 98
- Plant response rating, Bermudagrass [10, 16]: 100
- Plant response rating, Bermudagrass [10, 17]: 100
- Plant response rating, Windgrass [11, 15]: 15
- Plant response rating, Windgrass [11, 16]: 65
- Plant response rating, Windgrass [11, 17]: 65
- Barley plant response rating (0 to 100 scale) ([12]; 62 g ai/ha, 13 to 15 days): 5
- Plant response rating, Barley [12, 15]: 0
- Plant response rating, Barley [12, 16]: 40
- Plant response rating, Barley [12, 17]: 70
- Plant response rating, Chickweed [13, 16]: 100
- Plant response rating, Chickweed [13, 17]: 100
- Plant response rating, Canarygrass [14, 15]: 0
- Plant response rating, Canarygrass [14, 16]: 25
- Plant response rating, Canarygrass [14, 17]: 55

SMILES: Cc1cc(-n2c(-c3cccc(F)c3)ncc(C(=O)C3=C(O)CCCC3=O)c2=O)ccc1F [Compound 191]
- Plant response rating, Kochia [1, 15]: 5
- Plant response rating, Kochia [1, 18]: 10
- Plant response rating, Kochia [1, 16]: 25
- Plant response rating, Kochia [1, 17]: 35
- Plant response rating, Soybean [2, 15]: 90
- Plant response rating, Soybean [2, 18]: 95
- Plant response rating, Soybean [2, 16]: 100
- Plant response rating, Soybean [2, 17]: 100
- Plant response rating, Foxtail, Giant [3, 15]: 100
- Plant response rating, Foxtail, Giant [3, 18]: 100
- Plant response rating, Foxtail, Giant [3, 16]: 100
- Plant response rating, Foxtail, Giant [3, 17]: 100
- Plant response rating, Oat, Wild [4, 15]: 50
- Plant response rating, Oat, Wild [4, 18]: 60
- Plant response rating, Oat, Wild [4, 16]: 70
- Plant response rating, Oat, Wild [4, 17]: 80
- Plant response rating, Johnsongrass [5, 15]: 70
- Plant response rating, Johnsongrass [5, 18]: 100
- Plant response rating, Johnsongrass [5, 16]: 100
- Plant response rating, Johnsongrass [5, 17]: 100
- Plant response rating, Cocklebur [6, 15]: 90
- Plant response rating, Cocklebur [6, 18]: 98
- Plant response rating, Cocklebur [6, 16]: 98
- Plant response rating, Cocklebur [6, 17]: 100
- Plant response rating, Morningglory [7, 15]: 40
- Plant response rating, Morningglory [7, 18]: 65
- Plant response rating, Morningglory [7, 16]: 90
- Plant response rating, Morningglory [7, 17]: 100
- Plant response rating, Blackgrass [8, 15]: 30
- Plant response rating, Blackgrass [8, 18]: 45
- Plant response rating, Blackgrass [8, 16]: 50
- Plant response rating, Blackgrass [8, 17]: 60
- Plant response rating, Corn [9, 15]: 65
- Plant response rating, Corn [9, 18]: 75
- Plant response rating, Corn [9, 16]: 75
- Plant response rating, Corn [9, 17]: 85
- Plant response rating, Bermudagrass [10, 15]: 100
- Plant response rating, Bermudagrass [10, 18]: 100
- Plant response rating, Bermudagrass [10, 16]: 100
- Plant response rating, Bermudagrass [10, 17]: 100
- Plant response rating, Windgrass [11, 15]: 55
- Plant response rating, Windgrass [11, 18]: 85
- Plant response rating, Windgrass [11, 16]: 85
- Plant response rating, Windgrass [11, 17]: 100
- Plant response rating, Barley [12, 15]: 5
- Plant response rating, Barley [12, 18]: 50
- Plant response rating, Barley [12, 16]: 50
- Plant response rating, Barley [12, 17]: 70
- Plant response rating, Chickweed [13, 15]: 98
- Plant response rating, Chickweed [13, 18]: 98
- Plant response rating, Chickweed [13, 16]: 98
- Plant response rating, Chickweed [13, 17]: 100
- Plant response rating, Canarygrass [14, 15]: 20
- Plant response rating, Canarygrass [14, 18]: 50
- Plant response rating, Canarygrass [14, 16]: 60
- Plant response rating, Canarygrass [14, 17]: 85

SMILES: O=C1CCCC(O)=C1C(=O)c1cnc(-c2ccc(F)cc2)n(C2CCCCC2)c1=O [Compound 197]
- Plant response rating, Kochia [1, 15]: 65
- Plant response rating, Kochia [1, 18]: 80
- Plant response rating, Kochia [1, 16]: 95
- Plant response rating, Kochia [1, 17]: 98
- Plant response rating, Soybean [2, 15]: 98
- Plant response rating, Soybean [2, 18]: 100
- Plant response rating, Soybean [2, 17]: 100
- Plant response rating, Foxtail, Giant [3, 15]: 85
- Plant response rating, Foxtail, Giant [3, 18]: 95
- Plant response rating, Foxtail, Giant [3, 16]: 98
- Plant response rating, Foxtail, Giant [3, 17]: 100
- Plant response rating, Oat, Wild [4, 15]: 40
- Plant response rating, Oat, Wild [4, 18]: 40
- Plant response rating, Oat, Wild [4, 17]: 85
- Plant response rating, Johnsongrass [5, 15]: 70
- Plant response rating, Johnsongrass [5, 18]: 85
- Plant response rating, Johnsongrass [5, 16]: 95
- Plant response rating, Johnsongrass [5, 17]: 100
- Plant response rating, Cocklebur [6, 15]: 80
- Plant response rating, Cocklebur [6, 18]: 100
- Plant response rating, Cocklebur [6, 16]: 100
- Plant response rating, Cocklebur [6, 17]: 100
- Plant response rating, Morningglory [7, 15]: 98
- Plant response rating, Morningglory [7, 18]: 100
- Plant response rating, Morningglory [7, 16]: 100
- Plant response rating, Morningglory [7, 17]: 100
- Plant response rating, Blackgrass [8, 15]: 0
- Plant response rating, Blackgrass [8, 18]: 10
- Plant response rating, Blackgrass [8, 16]: 10
- Plant response rating, Blackgrass [8, 17]: 45
- Plant response rating, Corn [9, 15]: 15
- Plant response rating, Corn [9, 18]: 35
- Plant response rating, Corn [9, 16]: 45
- Plant response rating, Corn [9, 17]: 65
- Plant response rating, Bermudagrass [10, 15]: 95
- Plant response rating, Bermudagrass [10, 18]: 100
- Plant response rating, Bermudagrass [10, 16]: 100
- Plant response rating, Bermudagrass [10, 17]: 100
- Plant response rating, Windgrass [11, 15]: 10
- Plant response rating, Windgrass [11, 18]: 50
- Plant response rating, Windgrass [11, 17]: 98
- Plant response rating, Barley [12, 15]: 0
- Plant response rating, Barley [12, 18]: 5
- Plant response rating, Barley [12, 16]: 10
- Plant response rating, Barley [12, 17]: 40
- Plant response rating, Chickweed [13, 15]: 100
- Plant response rating, Chickweed [13, 18]: 100
- Plant response rating, Chickweed [13, 16]: 100
- Plant response rating, Chickweed [13, 17]: 100
- Plant response rating, Canarygrass [14, 15]: 5
- Plant response rating, Canarygrass [14, 18]: 30
- Plant response rating, Canarygrass [14, 16]: 40
- Plant response rating, Canarygrass [14, 17]: 60
